Read-outs that look alike come from different tables or passages of the source.
Experiments:
[1] = system: influenza A virus (A/PR/8/34); experiment: microbe, parasite or virus in culture; type: cell-based; settings: for bDNA EC99 (uM), class / bDNA EC99: Table 2
[2] = system: influenza A virus (A/PR/8/34); experiment: MDCK cytopathic effect (CPE) cell protection assay, ATP detection; type: cell-based
influenza virus = experiment: Influenza therapeutic mouse model (in vivo efficacy); design: species or system Balb/c mice; settings: dosing @ 48 hours post infection, 30 mg/kg BID × 10 days; for Percent Survival / Percent Weight Loss (Day 8): Balb/c mice; for Percent Survival: scored 21 days; for Percent Weight Loss (Day 8): post challenge day 8; for WBP (Penh; Day 6): whole body plethysmography, enhanced pause
[3] = Influenza A virus, PR/8, Table 1, mean all, class symbol, read-out: bDNA EC99
[4] = Influenza A virus, PR/8, Table 1, viral RNA 50% of control wells, mean all, class symbol, read-out: bDNA EC50
[5] = Influenza A virus, PR/8, exemplary data, bDNA, read-out: EC50
[6] = Influenza A virus, PR/8, MDCK, 72 h, Table 1, MDCK cells, A/PR/8/34, 72 hours, 50% cell protection, mean all, class symbol, read-out: MDCK IC50
[7] = Influenza A virus, PR/8, MDCK, exemplary data, MDCK cell protection, read-out: IC50
[8] = Table 1, mean all, class symbol
[9] = Influenza A virus, PR/8, Table 2, class symbol in brackets, read-out: bDNA EC50 (uM), class
[10] = Influenza A virus, PR/8, Table 2, comparison compounds of WO2005/095400, mean value, read-out: bDNA EC50
[11] = comparison compounds of WO2005/095400, mean value
[12] = Influenza A virus, PR/8, MDCK, Table 2, class symbol in brackets, read-out: MDCK cell IC50 (uM), class
[13] = Influenza A virus, PR/8, MDCK, Table 2, comparison compounds of WO2005/095400, mean value, read-out: MDCK cell IC50

`CC(C)(C)[C@@H](CC(=O)O)Nc1nc(-c2c[nH]c3ncc(Cl)cc23)ncc1F` [Compound 1, (R)-3-(2-(5-Chloro-1H-pyrrolo[2,3-b]pyridin-3-yl)-5-fluoropyrimidin-4-ylamino)-4,4-dimethylpentanoic acid] was tested. Which EC99 [1, 3] did it give?
The EC99 was less than 0.3 µM.

And the EC50 [1, 4]?
The EC50 was less than 0.3 µM.

And the EC50 [1, 5]?
Its EC50 is 0.009 µM.

What about the EC99 ([1]; exemplary data, bDNA) of the same compound?
The EC99 was 0.0094 µM.

What about the IC50 [2, 6] of the same compound?
The IC50 was less than 0.3 µM.

And the IC50 [2, 7]?
The IC50 was 0.006 µM.

What about the “Percent Survival” value (influenza virus) of the same compound?
The value was 100%.

And the “Percent Weight Loss (Day 8)” value (influenza virus)?
The value was 26.6%.

And the “WBP (Penh; Day 6)” value (influenza virus)?
The value was 1.88.

What does the source list for `CC(C)(C)[C@@H](CC(=O)O)Nc1nc(-c2c[nH]c3ncc(F)cc23)ncc1F` [Compound 2, (R)-3-((5-fluoro-2-(5-fluoro-1H-pyrrolo[2,3-b]pyridin-3-yl)pyrimidin-4-yl)amino)-4,4-dimethylpentanoic acid]?
EC99 [1, 3]: < 0.3 µM; EC50 [1, 4]: < 0.3 µM; EC50 [1, 5]: 0.009 µM; EC99 ([1]; exemplary data, bDNA): 0.0063 µM; IC50 [2, 6]: < 0.3 µM; IC50 [2, 7]: 0.004 µM; Percent Survival (influenza virus): 100%; Percent Weight Loss (Day 8) (influenza virus): 14%; WBP (Penh; Day 6) (influenza virus): 2.03

For `Cc1cnc2[nH]cc(-c3ncc(F)c(N[C@H](CC(=O)O)C(C)(C)C)n3)c2c1` [Compound 90, (R)-3-((5-fluoro-2-(5-methyl-1H-pyrrolo[2,3-b]pyridin-3-yl)pyrimidin-4-yl)amino)-4,4-dimethylpentanoic acid], which EC99 [1, 3] is on record?
Its EC99 is 0.3 to 3.3 µM.

And the EC50 [1, 4]?
Its EC50 is less than 0.3 µM.

And the IC50 [2, 6]?
The IC50 was less than 0.3 µM.

What does the source list for `CC1([C@@H](CC(=O)O)Nc2nc(-c3c[nH]c4ncc(F)cc34)ncc2F)CC1` [Compound 91, (R)-3-((5-fluoro-2-(5-fluoro-1H-pyrrolo[2,3-b]pyridin-3-yl)pyrimidin-4-yl)amino)-3-(1-methylcyclopropyl)propanoic acid]?
EC50 [1, 4]: < 0.3 µM; bDNA EC99 (uM) [1, 8]: B (0.3 μM≤EC99 (mean all)≤3.3 μM); IC50 [2, 6]: < 0.3 µM

With `CC1([C@@H](CC(=O)O)Nc2nc(-c3c[nH]c4ncc(F)cc34)ncc2F)CC1` [Compound 92] as the compound, how does the “bDNA EC99 (uM)” value [1, 8] read?
The value was “C (EC99 (mean all)>3.3 μM)”.

And the EC50 ([1]; Table 1, viral RNA 50% of control wells, mean all, class symbol, read-out: bDNA EC50)?
Its EC50 is 0.3 to 3.3 µM.

And the IC50 ([2]; Table 1, MDCK cells, A/PR/8/34, 72 hours, 50% cell protection, mean all, class symbol, read-out: MDCK IC50)?
The IC50 was 0.3 to 3.3 µM.

What does the source list for `COC(=O)C[C@@H](Nc1nc(-c2n[nH]c3ncc(Cl)cc23)ncc1F)C(C)(C)C` [Compound 96]?
EC99 [1, 3]: 0.3 to 3.3 µM; EC50 [1, 4]: < 0.3 µM; IC50 [2, 6]: < 0.3 µM

With `CC(C)(C)[C@@H](CC(=O)O)Nc1nc(-c2n[nH]c3ncc(Cl)cc23)ncc1F` [Compound 97, (R)-3-((2-(5-chloro-1H-pyrazolo[3,4-b]pyridin-3-yl)-5-fluoropyrimidin-4-yl)amino)-4,4-dimethylpentanoic acid] as the compound, how does the EC99 [1, 3] read?
Its EC99 is less than 0.3 µM.

What about the EC50 [1, 4] of the same compound?
The EC50 was less than 0.3 µM.

And the IC50 [2, 6]?
The IC50 was less than 0.3 µM.

`CNC(=O)[C@H](C)Nc1nc(-c2c[nH]c3ncc(Cl)cc23)ncc1F` [Compound C3, reference compound] was tested. Which EC50 [1, 9] did it give?
The EC50 was greater than 3.3 µM.

What about the EC50 [1, 10] of the same compound?
Its EC50 is 3.38 µM.

And the “bDNA EC99 (uM), class” value ([1]; class symbol in brackets)?
Its value is “C (EC99 (mean all)>3.3 μM)”.

What about the “bDNA EC99” value [1, 11] of the same compound?
Its value is 9.37 µM.

What about the IC50 [2, 12] of the same compound?
Its IC50 is greater than 3.3 µM.

And the IC50 [2, 13]?
The IC50 was greater than 20 µM.

Which EC50 [1, 9] does the source give for `C[C@@H](CC(=O)O)Nc1nc(-c2c[nH]c3ncc(Cl)cc23)ncc1F` [Compound C4, reference compound] here?
Its EC50 is greater than 3.3 µM.

And the EC50 [1, 10]?
The EC50 was 6.4 µM.

And the “bDNA EC99 (uM), class” value ([1]; class symbol in brackets)?
The value was “C (EC99 (mean all)>3.3 μM)”.

And the “bDNA EC99” value [1, 11]?
The value was greater than 16.7 µM.

What about the IC50 [2, 12] of the same compound?
Its IC50 is 0.3 to 3.3 µM.

And the IC50 [2, 13]?
Its IC50 is 2.33 µM.
